Tests used:
[1] = system: human umbellical endothelial cells (HUVEC); test: Adhesion, propagation and growth of endothelial cells on coated polystyrene films; format: cell-based; details: days 3, 7, 14, compared with native FA
Protocol: Polystyrene scaffolds were prepared and pretreated in the same manner as performed in example 1 by using the same nitrocarboxylic acids as listed in table 1. The film samples were placed in a culture dish containing a gel matrix, in which human umbellical endothelial cells (HUVEC) had been allowed to grow to confluence. The culture medium consisted of 5% FCS, which was replaced every 5 days. Cultivation was performed according to standard conditions. Films were evaluated at days 3, 7, and 14 after careful extraction from the culture dishes, rinsing with saline solution, and staining with methylene blue. Using a reflected light microscope, the films were immediately examined to evaluate the following: Propagation of cells to the film center, cell confluidity, multilayer formation, and cell shape.

fibroblasts = test: Biofouling and cell adherence at prosthetic materials (dip-coated polymer films); format: cell-based; details: compared with native FA (control)
Protocol: Polymer scaffolds (polyurethane, polyvinylchloride, polylactate) which are used as implant materials were investigated. Solid and porous (pore sizes ranging from 50 to 150 micrometer) films of pure polymer scaffolds were cut into pieces (5×5 mm). After cleaning with NaOH and ethanol, they were dip-coated with native and nitrocarboxylic acids. Dip-coated pieces were suspended in a tube filled with argon and heated at 60° C. for 24 hours in the dark. Film pieces with and without coating were placed in a borosilicate glass tube that allowed fixation of two margins of the film pieces at the wall of the glass tube, thus, enabling a upright standing position in the center of the tube. Tubes were filled with various solutions for 12 hours. Solutions consisted of the following: 0.9% saline; 2% bovine albumin; 2% bovine albumin with addition of either fibronectin or laminin; and bovine serum. At the end of the exposure time, tubes were gently washed twice with 0.9% saline solution. One set of films was analyzed for protein absorption using a specific antibody staining method. An identically prepared set of films was further processed for cell cultures. A suspension containing preincubated fibroblasts in 1% FCS was added to the film-containing tubes. The tubes were tilted and adjusted in such a position so that the films were in a vertical orientation within the suspension. […] Tubes had two openings at the upper half (of the tilt tubes) that allowed free exchange of the atmosphere above the solution with the surrounding atmosphere. Sets were incubated at standard conditions for 24, 48, and 96 hours, respectively. Thereafter, films were carefully removed and rinsed with 0.9% saline solution. The cellularity and the shape of the cells on both sides of the films were evaluated after staining (Gimsa) using a reflected light microscope.

human dermal fibroblasts = test: Extra cellular matrix production (collagen-1) in response to TGF-β2 in dermal fibroblasts; format: cell-based; details: 10 and 50 μmol, TGF-β2 25 ng/ml, 48 hours; compared with native FA
Protocol: In order to determine whether PPRA gamma stimulation due to nitrated fatty acids plays a role in the inventive inhibition of an aggressive healing pattern to an irritating stimulus, human dermal fibroblasts were investigated. A dominant-negative PPAR gamma mutant (L466A) cell clone was generated by polymerase chain reaction-based site-directed mutagenesis. Presence of PPAR gamma or absence was investigated using a PPAR gamma antibody reaction which was determined using an enhanced chemiluminescence detection system. Furthermore, one cell series was incubated with a selective irreversible PPAR gamma ligand (GW9662, 1 μmol), which effectively blocks PPAR gamma receptors.
Sequential cultivation of human dermal fibroblasts was performed in EMEM containing 5 mM glucose supplemented with 10% FCS under standard cultivation conditions. Cells were allowed to grow to confluence in a 96-well plate. Wild-type fibroblasts and PPAR gamma deficient fibroblasts were investigated by a set-up of 2×10 sample sets comprising: (1) blank control; (2) stimulation control; (3) preincubation with the PPAR gamma antagonist GW9662 (Cayman Chemical); (4) preincubation with the PPAR agonist troglitazone (25 μmol). In 2×4 sample sets, native fatty acids were added to the medium to achieve a final concentration of 10 and 50 μmol, respectively; in another 2×4 sets the nitrated fatty acids were added to the medium in the same concentration, while 2×2 sets served as controls. In 10 of the sets, TGF-β2 was added to the culture medium at a concentration of 25 ng/ml. Cultivation was continued for 48 hours and then processed in order to analyze collagen-1 as measured by enhanced chemiluminescence detection of immuncomplexes.

[2] = system: female Sprague-Dawley rats; test: Fibrogenesis in an in-vivo model of soft implant implantation; parameters: species or system rat; details: subcutaneous implants, 120 days, compared with native FA
Protocol: Silicone bag-gel miniprostheses (POLYTECH Health & Aesthetics GmbH, Dieburg, Germany) having a diameter of 2 cm and a volume of approximately 2 ml were used. […] The experimentally used implant models had two small tags which allowed the implants to be suspended during the coating procedures.
Each implant was treated in the following manner: cleaning by sonication for 2 min each in the following sequence of solvents: acetone, toluene, acetone, ethanol, and water. Implants were exposed to Piranha solution for 60 min and rinsed with deionized water. They were then immersed in a 20% aqueous solution of ammonium fluoride for 45 min to obtain a hydrogen-passivated Si surface. The ammonium fluoride solution was sparged with nitrogen for 15 min to remove dissolved oxygen. Prepared implants were transferred to a glass chamber filled with an inert atmosphere where they were suspended so that no part of their surface came in contact with the container. The container was filled with a 1-hexadecene solution and heated at 150° C. at a pressure of 2 Torr for 120 min. Prepared implants were cleaned in the following sequence of solvents: acetone, ethanol, and water. Formation of self assembled monolayer was controlled by measuring surface hydrophobicity; the contact angle was about 105°. Dry implants suspended in the container were then bathed in an ethanolic solution of oleic acid or nitro-oleic acid at a temperature of 40° C. for 120 min. Thereafter, the solution was allowed to run out slowly through an outlet at the bottom of the container. The emptying container was filled with inert gas in which the samples were maintained for 24 hours. Then samples were bathed three times in an ethanolic solution, followed by a final rinsing with sterile water. After drying, the container with the prepared implant was sterilized using ethylene oxide and stored at 20° C.
For in vivo testing, 24 uncoated and 24 coated implants were investigated in 24 female Sprague-Dawley rats (190-230 g). In the anesthetized animals, bilateral dorsal pockets in the subcutaneum were created by blunt dissection through paired paravertebral incisions. Each animal received one coated implant and one control implant on opposite sides, alternating sides on successive animals. Animals were housed and fed according to institutional standards for 120 days. Animals were sacrificed with chloroform. The implants and the adhering tissue were extracted by en bloc resection. The implants were cannulated and the liquid silicone gel was replaced by paraffin. Thereafter, the complete tissue block was prepared by standard means of histology, and stained with H&E or Masson's trichrome.
Note: key: 0: not superior to native FA (control); +: Superior to native FA; ++: superior to both; +++: outstanding effect.

5-nitro-eicosatrienoic acid [compound 4]
Relative differences: effect on adhesion, propagation and growth of endothelial cells [1]: +
Relative differences: effect on biofouling and cell adherence (fibroblasts): +
Relative effect on collagen-1 production in response to TGF-β2 (human dermal fibroblasts): +

CCCCCCCCCCC/C=C(/CCCCC(=O)O)[N+](=O)[O-] [compound 21, 6-nitro-cis-6-octadecenoic acid]
Relative differences: effect on adhesion, propagation and growth of endothelial cells [1]: 0
Relative effect of surface coating on fibrogenesis around silicone implants [2]: +
Relative effect on collagen-1 production in response to TGF-β2 (human dermal fibroblasts): ++

CCCCCC=CCC=C(CC=CCC=CCCCC(=O)O)[N+](=O)[O-] [compound 14, 11-nitro-5,8,11,14-eicosatrienoic acid]
Relative differences: effect on adhesion, propagation and growth of endothelial cells [1]: +
Relative effect of surface coating on fibrogenesis around silicone implants [2]: +
Relative differences: effect on biofouling and cell adherence (fibroblasts): +
Relative effect on collagen-1 production in response to TGF-β2 (human dermal fibroblasts): +

CCCCC/C=C\C/C(=C\CCCCCCCC(=O)O)[N+](=O)[O-] [compound 2, 10-nitro-cis-linoleic acid]
Relative differences: effect on adhesion, propagation and growth of endothelial cells [1]: +++
Relative effect of surface coating on fibrogenesis around silicone implants [2]: ++
Relative differences: effect on biofouling and cell adherence (fibroblasts): ++
Relative effect on collagen-1 production in response to TGF-β2 (human dermal fibroblasts): ++

CCCCCC/C=C(\CCCCCCCC(=O)O)[N+](=O)[O-] [compound 16, 9-nitro-9-trans-hexadecenoic acid]
Relative differences: effect on adhesion, propagation and growth of endothelial cells [1]: +
Relative effect of surface coating on fibrogenesis around silicone implants [2]: 0
Relative differences: effect on biofouling and cell adherence (fibroblasts): ++
Relative effect on collagen-1 production in response to TGF-β2 (human dermal fibroblasts): 0

CCCCCCCC/C(=C\CCCCCCCC(=O)O)[N+](=O)[O-] [compound 12, 10-nitro-trans-oleic acid]
Relative differences: effect on adhesion, propagation and growth of endothelial cells [1]: +
Relative differences: effect on biofouling and cell adherence (fibroblasts): +
Relative effect on collagen-1 production in response to TGF-β2 (human dermal fibroblasts): +

CC/C=C\C/C=C\C/C(=C/C/C=C\C/C=C\CCCCCC(=O)O)[N+](=O)[O-] [compound 7, 14-nitro-all-cis-7,10,13,16,19-docosapentaenoic acid]
Relative differences: effect on adhesion, propagation and growth of endothelial cells [1]: +
Relative differences: effect on biofouling and cell adherence (fibroblasts): ++
Relative effect on collagen-1 production in response to TGF-β2 (human dermal fibroblasts): +

CCCCCCCC/C=C(/CCCCCCCCCCCC(=O)O)[N+](=O)[O-] [compound 17, 13-nitro-cis-13-docosenoic acid]
Relative differences: effect on adhesion, propagation and growth of endothelial cells [1]: 0
Relative differences: effect on biofouling and cell adherence (fibroblasts): +
Relative effect on collagen-1 production in response to TGF-β2 (human dermal fibroblasts): +

CCC=CCC=C(CC=CCC=CCC=CCC=C(CCC(=O)O)[N+](=O)[O-])[N+](=O)[O-] [compound 19, 4,16-nitro-docosahexaenoic acid]
Relative differences: effect on adhesion, propagation and growth of endothelial cells [1]: +
Relative differences: effect on biofouling and cell adherence (fibroblasts): +
Relative effect on collagen-1 production in response to TGF-β2 (human dermal fibroblasts): +

CCCCCCCC/C=C(\CCCCCCCC(=O)O)[N+](=O)[O-] [compound 9, 9-nitro-trans-oleic acid]
Relative differences: effect on adhesion, propagation and growth of endothelial cells [1]: +
Relative effect of surface coating on fibrogenesis around silicone implants [2]: +
Relative differences: effect on biofouling and cell adherence (fibroblasts): +
Relative effect on collagen-1 production in response to TGF-β2 (human dermal fibroblasts): +

CCCCCCCC/C=C(/CCCCCCCC(=O)O)[N+](=O)[O-] [compound 1, 9-nitro cis-oleic acid]
Relative differences: effect on adhesion, propagation and growth of endothelial cells [1]: ++
Relative effect of surface coating on fibrogenesis around silicone implants [2]: ++
Relative differences: effect on biofouling and cell adherence (fibroblasts): ++
Relative effect on collagen-1 production in response to TGF-β2 (human dermal fibroblasts): +++

CCCCCCCC/C(=C/CCCCCCCC(=O)O)[N+](=O)[O-] [compound 3, 10-nitro-cis-oleic acid]
Relative differences: effect on adhesion, propagation and growth of endothelial cells [1]: ++
Relative effect of surface coating on fibrogenesis around silicone implants [2]: ++
Relative differences: effect on biofouling and cell adherence (fibroblasts): ++
Relative effect on collagen-1 production in response to TGF-β2 (human dermal fibroblasts): ++

CCCCCC=CCC=C(CC=CC/C=C\CCCC(=O)O)[N+](=O)[O-] [compound 22, 11-nitro-cis-5,8,11,14-eicosatetraenoic acid]
Relative differences: effect on adhesion, propagation and growth of endothelial cells [1]: ++
Relative effect of surface coating on fibrogenesis around silicone implants [2]: ++
Relative differences: effect on biofouling and cell adherence (fibroblasts): +
Relative effect on collagen-1 production in response to TGF-β2 (human dermal fibroblasts): ++

CCCCCCCC/C=C(/CCCCCCCCCCCCCC(=O)O)[N+](=O)[O-] [compound 8, 15-nitro-cis-15-tetracosenoic acid]
Relative differences: effect on adhesion, propagation and growth of endothelial cells [1]: +
Relative effect of surface coating on fibrogenesis around silicone implants [2]: +
Relative differences: effect on biofouling and cell adherence (fibroblasts): +
Relative effect on collagen-1 production in response to TGF-β2 (human dermal fibroblasts): 0

CCCCCC/C=C(/CCCCCCCC(=O)O)[N+](=O)[O-] [compound 13]
Relative differences: effect on adhesion, propagation and growth of endothelial cells [1]: ++
Relative effect of surface coating on fibrogenesis around silicone implants [2]: +
Relative differences: effect on biofouling and cell adherence (fibroblasts): +
Relative effect on collagen-1 production in response to TGF-β2 (human dermal fibroblasts): +

9,10-nitro-trans-oleic acid [compound 15]
Relative differences: effect on adhesion, propagation and growth of endothelial cells [1]: +
Relative effect of surface coating on fibrogenesis around silicone implants [2]: +
Relative differences: effect on biofouling and cell adherence (fibroblasts): ++
Relative effect on collagen-1 production in response to TGF-β2 (human dermal fibroblasts): +

CCCCC/C=C(/C/C=C\C/C=C(/C/C=C\CCCC(=O)O)[N+](=O)[O-])[N+](=O)[O-] [compound 18, 8,14-nitro-cis-5,8,11,14-eicosatetraenoic acid]
Relative differences: effect on adhesion, propagation and growth of endothelial cells [1]: +
Relative differences: effect on biofouling and cell adherence (fibroblasts): +
Relative effect on collagen-1 production in response to TGF-β2 (human dermal fibroblasts): +

CCCCC/C=C(/C/C=C\C/C=C\C/C=C\C/C=C\CCC(=O)O)[N+](=O)[O-] [compound 5, 16-nitro-all-cis-4,7,10,13,16-docosapentaenoic acid]
Relative differences: effect on adhesion, propagation and growth of endothelial cells [1]: ++
Relative differences: effect on biofouling and cell adherence (fibroblasts): ++
Relative effect on collagen-1 production in response to TGF-β2 (human dermal fibroblasts): +
